According to ChEMBL document CHEMBL2029243, “Potent and selective pyrazolo[1,5-a]pyrimidine based inhibitors of B-Raf(V600E) kinase with favorable physicochemical and pharmacokinetic properties” (Bioorg Med Chem Lett, 2012):
Converted amounts (≈) assume the structure as drawn.

Assays:
[1] = Volume of distribution in mouse at […], iv and 30 mg/kg, po; assay type: ADME, organism-based; conditions: in vivo
[2] = Clearance in mouse at […], iv; assay type: ADME, organism-based; set-up: dose 2.5 mg/kg, route intravenous; conditions: in vivo
[3] = AUC in mouse at 30 mg/kg, po administered with 1% methylcellulose/0.5% Tween 80 in water; assay type: ADME, organism-based; set-up: dose 30 mg/kg, route oral; conditions: in vivo
[4] = AUC in mouse at 30 mg/kg, po administered with 40/10/50 volume of PEG400/EtOH/H2O solution; assay type: ADME, organism-based; set-up: dose 30 mg/kg, route oral; conditions: plasma
[5] = Aqueous solubility of the compound at pH 1.2; assay type: physicochemical; conditions: buffer
[6] = biological target: T1, Serine/threonine-protein kinase B-raf (Homo sapiens, UniProt P15056, V600E)
T1 sequence (P15056 2-766 V600E limits assumed): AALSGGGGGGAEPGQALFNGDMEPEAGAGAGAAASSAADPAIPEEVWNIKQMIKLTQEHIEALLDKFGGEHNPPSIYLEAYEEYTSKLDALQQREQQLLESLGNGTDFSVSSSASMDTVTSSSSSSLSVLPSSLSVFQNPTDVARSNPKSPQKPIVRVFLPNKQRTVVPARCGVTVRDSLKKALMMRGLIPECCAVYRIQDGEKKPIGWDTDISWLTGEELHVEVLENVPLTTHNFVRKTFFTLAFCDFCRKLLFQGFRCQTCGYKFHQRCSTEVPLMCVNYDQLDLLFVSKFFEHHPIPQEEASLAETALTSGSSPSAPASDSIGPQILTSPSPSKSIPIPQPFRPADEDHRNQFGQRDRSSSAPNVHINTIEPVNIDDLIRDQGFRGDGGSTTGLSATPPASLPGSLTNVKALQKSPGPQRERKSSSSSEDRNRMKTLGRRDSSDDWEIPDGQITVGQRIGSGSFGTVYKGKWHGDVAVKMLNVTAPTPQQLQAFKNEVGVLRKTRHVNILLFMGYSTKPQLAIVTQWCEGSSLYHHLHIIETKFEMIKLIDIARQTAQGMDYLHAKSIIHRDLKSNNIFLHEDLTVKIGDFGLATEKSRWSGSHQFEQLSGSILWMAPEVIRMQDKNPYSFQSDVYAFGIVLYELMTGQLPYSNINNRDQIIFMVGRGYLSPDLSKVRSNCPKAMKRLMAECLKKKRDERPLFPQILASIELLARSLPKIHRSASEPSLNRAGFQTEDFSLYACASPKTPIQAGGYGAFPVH

[7] = biological target: T1, Serine/threonine-protein kinase B-raf; remark: listed apart in the source
[8] = Oral bioavailability in mouse at 30 mg/kg; assay type: ADME, organism-based; conditions: in vivo
in vitro = conditions: human, Caco-2
Description: Permeability across human Caco2 cells

physchem [9] = conditions: buffer, pH 7.4
Description: Aqueous solubility of the compound at pH 7.4

physchem [10] = conditions: buffer, pH 6.5
Description: Aqueous solubility of the compound at pH 6.5

| IC50 [6] | IC50 [7] | Compound | further results |
| --- | --- | --- | --- |
| 247 nM | 488 nM | CCCS(=O)(=O)Nc1ccc(F)c(C(=O)Nc2cnc3ccnn3c2)c1F | – |
| 131 nM | 248 nM | CCCS(=O)(=O)Nc1ccc(F)c(C(=O)Nc2cnc3cc(C)nn3c2)c1F | – |
| 105 nM | 228 nM | CCCS(=O)(=O)Nc1ccc(F)c(C(=O)Nc2cnc3cc(CC)nn3c2)c1F | – |
| 129 nM | 382 nM | CCCS(=O)(=O)Nc1ccc(F)c(C(=O)Nc2cnc3cc(NC)nn3c2)c1F | – |
| 43 nM | 68 nM | CCCS(=O)(=O)Nc1ccc(F)c(C(=O)Nc2cnc3cc(OC)nn3c2)c1F | bioavailability [8]: 98%; Vd [1]: 0.16 L/kg; Papp (in vitro): 2 ×10⁻⁶ cm/s; clearance [2]: 1 mL/min/kg; AUC [3]: 844 µM·h; solubility (physchem [9]): 32 µg/mL (≈ 75.2 µM); AUC [4]: 733 µM·h; solubility (physchem [10]): 21 µg/mL (≈ 49.4 µM); solubility [5]: 18 µg/mL (≈ 42.3 µM) |
| 19 nM | 60 nM | CCCS(=O)(=O)Nc1ccc(F)c(C(=O)Nc2cnc3cc(-c4cccc(F)c4)nn3c2)c1F | – |
| 11 nM | 54 nM | CCCS(=O)(=O)Nc1ccc(F)c(C(=O)Nc2cnc3cc(-c4ccc(F)cc4)nn3c2)c1F | – |
| 13 nM | 27 nM | CCCS(=O)(=O)Nc1ccc(F)c(C(=O)Nc2cnc3cc(-c4cccnc4)nn3c2)c1F | – |
| 13 nM | 48 nM | CCCS(=O)(=O)Nc1ccc(F)c(C(=O)Nc2cnc3cc(-c4cnn(C)c4)nn3c2)c1F | – |

More lines, now with the values behind:

| Compound | IC50 [6] | IC50 [7] | further results |
| --- | --- | --- | --- |
| CCCS(=O)(=O)Nc1ccc(F)c(C(=O)Nc2cnc3[nH]nc(OC)c3c2)c1F | 5 nM | – | Vd [1]: 0.11 L/kg; clearance [2]: 1.3 mL/min/kg; AUC [3]: 105 µM·h; AUC [4]: 426 µM·h; solubility [5]: 3 µg/mL (≈ 7.05 µM) |
| CCCS(=O)(=O)Nc1ccc(F)c(C(=O)Nc2cnc3ccccc3c2)c1F | 464 nM | 1380 nM | – |
| CCCS(=O)(=O)Nc1ccc(F)c(C(=O)Nc2cnc3occc3c2)c1F | > 10000 nM | – | – |
| CCCS(=O)(=O)Nc1ccc(F)c(C(=O)Nc2cnc3nccn3c2)c1F | > 10000 nM | – | – |
| CCCS(=O)(=O)Nc1ccc(F)c(C(=O)Nc2cnc3cc[nH]c3c2)c1F | 407 nM | 1510 nM | – |
| CCCS(=O)(=O)Nc1ccc(F)c(C(=O)Nc2cnc3cc(C4CC4)nn3c2)c1F | 124 nM | 299 nM | – |
| CCCS(=O)(=O)Nc1ccc(F)c(C(=O)Nc2cnc3cc(C4CCCC4)nn3c2)c1F | 128 nM | 448 nM | – |
| CCCS(=O)(=O)Nc1ccc(F)c(C(=O)Nc2cnc3cc(C(F)(F)F)nn3c2)c1F | 126 nM | 374 nM | – |
| CCCS(=O)(=O)Nc1ccc(F)c(C(=O)Nc2cnc3cc(NC(C)C)nn3c2)c1F | 190 nM | 395 nM | – |
| CCCS(=O)(=O)Nc1ccc(F)c(C(=O)Nc2cnc3cc(N4CCCC4)nn3c2)c1F | – | 664 nM | – |
| CCCS(=O)(=O)Nc1ccc(F)c(C(=O)Nc2cnc3cc(N4CCOCC4)nn3c2)c1F | 174 nM | 315 nM | – |
| CCCS(=O)(=O)Nc1ccc(F)c(C(=O)Nc2cnc3cc(OCC)nn3c2)c1F | 83 nM | 205 nM | – |
| CCCS(=O)(=O)Nc1ccc(F)c(C(=O)Nc2cnc3cc(OC(C)C)nn3c2)c1F | 149 nM | 449 nM | – |
| CCCS(=O)(=O)Nc1ccc(F)c(C(=O)Nc2cnc3cc(OCCOC)nn3c2)c1F | 67 nM | 110 nM | – |
